Measured values taken from ChEMBL document CHEMBL1157179, “A CoMSIA study on the adenosine kinase inhibition of pyrrolo[2,3-d]pyrimidine nucleoside analogues” (Bioorg Med Chem, 2008).

Biological target: Adenosine kinase (Homo sapiens) (UniProt P55263)
Sequence (P55263 2-362 limits assumed): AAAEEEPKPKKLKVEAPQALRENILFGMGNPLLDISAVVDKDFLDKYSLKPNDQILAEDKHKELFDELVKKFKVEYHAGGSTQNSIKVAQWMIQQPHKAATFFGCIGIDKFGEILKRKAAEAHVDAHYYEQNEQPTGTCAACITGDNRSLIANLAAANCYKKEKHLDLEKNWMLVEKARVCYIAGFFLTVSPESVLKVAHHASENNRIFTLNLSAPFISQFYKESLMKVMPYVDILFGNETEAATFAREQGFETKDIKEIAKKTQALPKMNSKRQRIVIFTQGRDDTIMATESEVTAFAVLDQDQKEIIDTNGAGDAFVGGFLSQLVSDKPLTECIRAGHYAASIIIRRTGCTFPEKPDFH
Description: Inhibition of adenosine kinase

| log(10'3/IC50) | Structure (SMILES) |
| --- | --- |
| 6.22 | NC[C@H]1O[C@@H](n2cc(I)c3c(N)ncnc32)[C@H](O)[C@@H]1O |
| 4.3 | C[C@H]1O[C@@H](n2cc(Br)c3c(Cl)ncnc32)[C@H](O)[C@@H]1O |
| 2.19 | C[C@H]1O[C@@H](n2cc(I)c3c(S)ncnc32)[C@H](O)[C@@H]1O |
| 5.52 | C[C@H]1O[C@@H](n2cc(I)c3c(Cl)ncnc32)[C@H](O)[C@@H]1O |
| 4.22 | CC[C@H]1O[C@@H](n2cc(I)c3c(N)ncnc32)[C@H](O)[C@@H]1O |
| 2.7 | C[C@H]1O[C@@H](n2cc(I)c3c(SCc4ccc([N+](=O)[O-])cc4)ncnc32)[C@H](O)[C@@H]1O |
| 3.3 | CC[C@H]1O[C@@H](n2cc(Br)c3c(N)ncnc32)[C@H](O)[C@@H]1O |
| 2.55 | C=CCSc1ncnc2c1c(I)cn2[C@@H]1O[C@H](C)[C@@H](O)[C@H]1O |
| 3 | CCCCSc1ncnc2c1c(I)cn2[C@@H]1O[C@H](C)[C@@H](O)[C@H]1O |
| 2.92 | COC[C@H]1O[C@@H](n2cc(I)c3c(N)ncnc32)[C@H](O)[C@@H]1O |
| 4.2 | [N-]=[N+]=NC[C@H]1O[C@@H](n2cc(Br)c3c(N)ncnc32)[C@H](O)[C@@H]1O |
| 3.27 | Cc1cn([C@@H]2O[C@H](C)[C@@H](O)[C@H]2O)c2ncnc(Cl)c12 |
| 5.05 | [N-]=[N+]=NC[C@H]1O[C@@H](n2cc(I)c3c(Cl)ncnc32)[C@H](O)[C@@H]1O |
| 4.46 | [N-]=[N+]=NC[C@H]1O[C@@H](n2cc(I)c3c(N)ncnc32)[C@H](O)[C@@H]1O |
| 7 | NC[C@H]1O[C@@H](n2cc(I)c3c(Cl)ncnc32)[C@H](O)[C@@H]1O |
| 2.87 | CSc1cn([C@@H]2O[C@H](C)[C@@H](O)[C@H]2O)c2ncnc(N)c12 |
| 6.7 | NC[C@H]1O[C@@H](n2cc(Br)c3c(N)ncnc32)[C@H](O)[C@@H]1O |
| 2.92 | CNc1ncnc2c1c(I)cn2[C@@H]1O[C@H](CO)[C@@H](O)[C@H]1O |
| 4.35 | CSc1ncnc2c1c(I)cn2[C@@H]1O[C@H](C)[C@@H](O)[C@H]1O |
| 3 | C[C@H]1O[C@@H](n2cc(I)c3c(SCc4ccccc4)ncnc32)[C@H](O)[C@@H]1O |
| 1.89 | NC[C@H]1O[C@@H](n2ccc3c(N)ncnc32)[C@H](O)[C@@H]1O |
| 4 | [N-]=[N+]=NC[C@H]1O[C@@H](n2cc(Br)c3c(Cl)ncnc32)[C@H](O)[C@@H]1O |
| 4.62 | OC[C@H]1O[C@@H](n2cc(I)c3c(Cl)ncnc32)[C@H](O)[C@@H]1O |
| 4 | C=C[C@H]1O[C@@H](n2cc(I)c3c(N)ncnc32)[C@H](O)[C@@H]1O |
| 4.15 | CSc1cn([C@@H]2O[C@H](C)[C@@H](O)[C@H]2O)c2ncnc(Cl)c12 |

| Structure (SMILES) | log(10'3/IC50) |
| --- | --- |
| Nc1ncnc2c1c(Cl)cn2[C@@H]1O[C@H](CO)[C@@H](O)[C@H]1O | 3.68 |
| N#Cc1cn([C@@H]2O[C@H](CO)[C@@H](O)[C@H]2O)c2ncnc(N)c12 | 3.51 |
| C[C@H]1O[C@@H](n2cc(C#N)c3c(N)ncnc32)[C@H](O)[C@@H]1O | 3.51 |
| Nc1ncnc2c1c(Br)cn2[C@@H]1O[C@H](CO)[C@@H](O)[C@H]1O | 3.92 |
